Source: patent US10232041B2, “Combination of lenalidomide and polypeptide construct, and uses thereof” (Teva Pharmaceuticals Australia Pty Ltd, priority 2014, dated 2019)
“Also recorded” adds a separate entry of the source.

Tests used:
[1] = system: H929 tumor cells; assay: H929 human multiple myeloma xenograft, pomalidomide study (Example 3); type: in vivo, SCID mice; conditions: pomalidomide 2.5 mg/kg ip qd × 21; constructs 40 μg/dose ip biwk × 4; FIG. 5
Procedure: Pomalidomide, like lenalidomide, is a derivative and an analog of thalidomide with increased potency against multiple myeloma and reduced toxicity.
In brief, sixty female CB.17 SCID mice were injected with 1×10^7 H929 tumor cells subcutaneously in the right flank. […] The endpoint for the study was when tumor volume reached 2000 mm^3. Cohorts were divided as follows, as summarized in Table 6: Group 1, Vehicle (PBS); Group 2, Pomalidomide alone (2.5 mg/kg); Group 3, Anti-CD38-attenuated IFNα- (40 ug/dose); Group 4, Anti-isotype-IFNα-attenuated (40 ug/dose), Group 5, Pomalidomide (2.5 mg/kg) plus anti-CD38-attenuated IFNa (40 μg/dose); and Group 6, Pomalidomide (2.5 mg/kg) plus anti-isotype-attenuated IFNα- (40 μg/dose), Pomalidomide administration started at day 1 and ended on day 21; antibody-interferon fusion construct administration started on day 1 and ended on day 28.

[2] = system: NCI-H929 multiple myeloma cells; assay: NCI-H929 multiple myeloma xenograft, anti-CD38 antibody-attenuated IFN alpha-2b construct + lenalidomide (Example 1); type: in vivo, SCID mice; conditions: IFN-alpha 0.5 mg/kg; for tumor growth / tumor volume as a function of time (in words): construct 2.5 mg/kg ip biweekly (suboptimal), lenalidomide 2.5 mg/kg or 25 mg/kg daily for 21 days ip, FIG. 1, FIG. 2; for time at which tumor growth initiated and accelerated: after commencing treatment, construct 2.5 mg/kg ip biweekly, lenalidomide 2.5 mg/kg
Procedure: When tumors reached an average size of 200-300 mm^3, mice were pair matched into different groups and then treated with vehicle (PBS), free-non-attenuated interferon alpha (IFN-alpha) at 0.5 mg/kg, a suboptimal dose of an anti-CD38 antibody-IFN alpha-2b-145D construct (2.5 mg/kg, molar equivalent to 0.5 mg/kg IFN; ip, biweekly, which was determined by previous in vivo efficacy studies), an isotype-matched antibody-IFN alpha-2b-145D construct (isotype matched to the anti-CD38 antibody, with no anti-CD38 specificity), lenalidomide alone (2.5 mg/kg), a combination of free-non-attenuated interferon alpha and lenalidomide, a combination of lenalidomide and a suboptimal dose of the anti-CD38 antibody-IFN alpha-2b-145D construct, or a combination of the isotype control antibody-IFN alpha-2b-145D construct and lenalidomide. The amount of the anti-CD38 antibody-attenuated IFN alpha-2b construct administered was normalized to an IFN-alpha molar equivalent of the 0.5 mg/kg of free interferon administered to the animals.

[3] = system: H929 multiple myeloma tumor cells
Procedure: In this experiment, 8-12 week-old female CB.17 severe combined immunodeficient (SCID) mice were implanted with 1×10^7 H929 multiple myeloma tumor cells in 50% Matrigel® subcutaneously in the flank. Tumor volume was measured by calipers biweekly. When tumors reached an average size of 170-350 mm^3, mice were randomized and treatment commenced. An animal was terminated if the tumor grew to a volume of greater than 2000 mm^3 before the study was completed at day 60.
Ten animals were assigned to each of groups 1 to 10. Treatment may cause “partial regression” (PR) or complete regression (CR) of the tumor in an animal. In a PR response, the tumor volume was 50% or less of its Day 1 volume for three consecutive measurements during the course of the study, and equal to or greater than 13.5 mm^3 for one or more of these three measurements. In a CR response, the tumor volume was less than 13.5 mm^3 for three consecutive measurements during the study. Any animal with a CR response at the end of the study was additionally classified as a tumor free survivor (TFS).

[4] = Group 2: lenalidomide 25 mg/kg ip qd × 21, ten animals per group

Row | Compound | tumor growth / tumor shrinkage (in words) [1] | tumor growth / tumor volume as a function of time (in words) [2] | time at which tumor growth initiated and accelerated [2] | MTV Day 60 (Median Tumor Volume at study end) ([3]; Group 2: lenalidomide 25 mg/kg ip qd × 21) | (n) number of surviving animals used for MTV calculation, Day 60 [3, 4] | CR No. of Complete Regressions [3, 4] | PR No. of Partial Regressions [3, 4] | TFS No. of Tumor Free Survivors [3, 4] | tumor growth (in words) ([3]; sub-optimal dosage of construct, lenalidomide 25 mg/kg, Table 5 and FIG. 3)
1 | Nc1cccc2c1C(=O)N(C1CCC(=O)NC1=O)C2=O (racemic) [Pomalidomide, (RS)-4-Amino-2-(2,6-dioxopiperidin-3-yl)isoindole-1,3-dione] | did not substantially slow tumor growth |  |  |  |  |  |  |  | 
2 | Nc1cccc2c1CN(C1CCC(=O)NC1=O)C2=O (racemic) [lenalidomide, (RS)-3-(4-Amino-1-oxo 1,3-dihydro-2H-isoindol-2-yl)piperidine-2,6-dione] |  | delayed tumor growth relative to the vehicle control; also recorded: delayed the onset of rapid tumor growth | within two weeks to about a month | 726 mm^3 | 1 | 0 | 1 | 0 | delayed tumor growth relative to vehicle control
3 | interferon alpha |  | delayed tumor growth relative to the vehicle control | within two weeks to about a month |  |  |  |  |  | 
